Laboratory results reported in a melting point compilation (Tetko et al.; mined from patent text by program, amines drawn as free bases though some values may be those of a salt).

Row | SMILES | melting point [°C]
1 | CC(=O)OCC1OC(n2cc(SC#N)c(=O)[nH]c2=O)CC1(O)C(C)=O (stereo not given) | 106 to 108
2 | C#CCCC(O)=C(C#N)C(=O)Nc1ccc(C(F)(F)F)cc1 | 172
3 | CCc1cc(=O)c2c([nH]1)CCOC2 | 238 to 240
4 | CCCCCCCc1cc(O)cc2c1C(=O)OC(C)(C)O2 | 100 to 102
5 | CC(=O)OC1CCC2(C)C(CCC3=C4C(=O)CC(C(C)CCCOS(=O)(=O)c5ccc(C)cc5)C4(C)CCC32)C1 (stereo not given) | 158 to 160
6 | C[C@@H](n1ncn(-c2ccc(-n3ncn(-c4ccc(OCC(F)(F)C(F)F)cc4)c3=O)cc2)c1=O)[C@@]1(c2ccc(F)cc2F)CO1 | 181 to 183
7 | CCSc1cccc(OC(F)(F)F)c1S(N)(=O)=O | 146
8 | CC1CC2=CC(=O)C=CC2(C)C2C(=O)CC3(C)C(=O)CCC3C12 (stereo not given) | 257 to 259
9 | COc1c(C(C)(C)C)cc(P(c2cc(C(C)(C)C)c(OC)c(C(C)(C)C)c2)c2ccccc2P2c3ccccc3CC2C(C)C)cc1C(C)(C)C (single isomer, unassigned; (+)) | 69 to 70
10 | CCOC(=O)c1cnc2cc(OC)c(OC)cc2c1 | > 300
11 | Fc1cc(F)c(-c2c(F)nc3ncncc3c2F)c(F)c1 | 248
12 | CCOC(=O)[C@H](CCc1ccccc1)NC(=O)C1(NC(=O)[C@@H](SC(C)=O)C2CCOCC2)CCCC1 | 107 to 111
13 | CC(C)CC1CCCCc2c1oc(=O)c(C(c1ccccc1)C1CC1)c2O (stereo not given) | 164 to 167
14 | COc1cccc(NC(=O)C(C)(C)C)c1C(C)=O | < 48
15 | CCOC(=O)N1CCC(Nc2nc3cncnc3n2Cc2ccco2)CC1 | 172
16 | CC(Cc1c[nH]c2ccccc12)(NC(=O)OC1C2CC3CC(C2)CC1C3)C(=O)NCCc1ccccn1 (stereo not given) | 89 to 91
17 | COc1ccc(C2(C#N)CCC(C(N)=O)CC2)cc1OC1CCCC1 (stereo not given) | 100 to 102
18 | COC(=O)C(COC(C)=O)C(=O)OC(C)(C)C (stereo not given) | 61 to 62
19 | COC(=CCl)C1(O)CCC2C3CCC4=CC(=O)CCC4(C)C3=CCC21C (stereo not given) | 197 to 199
20 | CC(C)(C)OC(=O)Nc1ccc(C#Cc2nccs2)cc1[N+](=O)[O-] | 137
21 | CCCCCCCCCCC(O)CNCCNCC(O)CCCCCCCCCC (stereo not given) | 137 to 142
22 | Cc1cc(N)c2c(c1Cl)CC(C)O2 (stereo not given) | 157 to 160
23 | NC(=O)NCCCCCC1CCSS1 (stereo not given) | 74 to 78
24 | COP(=O)(NNC(C)(C)C)OC | 61 to 68
25 | CCC[C@H]1CC[C@H](c2ccc(OCC)c(C=O)c2)CC1 | 32
26 | CC#CC(O)(C(=O)OC)c1ccccc1 (stereo not given) | 64 to 65
27 | CNC(=O)CNC(=O)CN1CCCC1=O | 139 to 140
28 | Cc1csc2c(S(N)(=O)=O)c(C(N)=O)nn12 | > 270
29 | CCCCCCN(CCCCCC)c1ccc(C2=C(C#N)C(=C(C#N)C#N)OC2(C)C)s1 | 134

The next lines start with the values.

Row | melting point [°C] | SMILES
30 | 299 to 302 | O=C1c2cccc([N+](=O)[O-])c2C(=O)c2cccc(O)c21
31 | 238 | O=c1c2[nH]c(N(S(=O)(=O)c3ccccc3)S(=O)(=O)c3ccccc3)nc2n(CC2CC2)c(=O)n1CC1CC1
32 | 93 to 96 | CCCCCCN1N=C(c2ccc(F)cc2)c2cc(F)ccc2CS1(=O)=O
33 | 116 to 118 | NNc1nccc(-c2ccccc2)n1
34 | 163 to 164 | O=C(c1ccc(Cl)cc1)N1CCC(=Cc2ccc(C3=NCCO3)cc2)CC1
35 | > 300 | Oc1ccc(O)c2[nH]c(-c3ccc(Cl)cc3)nc12
36 | 192 to 194 | CC(C)(C)OC(=O)N(Cc1ccc(C(=O)O)cc1)c1ccc(C2CCCCC2)cc1
37 | 80 to 81 | Cc1oc(-c2ccccc2)nc1COc1ccc(CCCBr)cc1
38 | 158 to 159 | COC(=O)C(O)=CC(=O)c1cn(Cc2ccccc2)c(=O)n(Cc2ccccc2)c1=O
39 | 210 to 212 | Cc1c(C)c(OCC(=O)N2CCN(c3ccc(N=C(N)c4cccs4)cc3)CC2)c(C)c(C)c1O
40 | 220 | O=C(O)C(c1ccc(Cl)cc1)c1c(Cl)cc(-n2ncc(=O)[nH]c2=O)cc1Cl (stereo not given)
41 | 197 to 199 | O=S(=O)(Nc1ncnc(Cl)c1Cc1ccc2ccccc2c1)c1ccc(Cl)cc1
42 | 147 to 155 | CC#Cc1ccc(NC(=O)c2ccccc2NCc2ccncc2)cc1
43 | 132 to 135 | O=C(c1ccc(F)cc1)C1CCN(CC(O)c2cc(Br)no2)CC1 (stereo not given)
44 | 178 to 179 | CC(C)(C)OC(=O)N1CC(CCl)c2c1cc(OCc1ccccc1)c1ncccc21 (stereo not given)
45 | 170 to 172 | Cc1cccc(-c2sc(N)nc2-c2ccc3c(c2)OCO3)n1
46 | 212 to 214 | COc1ccc(-c2nc3cc(Cl)c(Cl)cc3n2C(=O)OCc2ccccc2)cc1[N+](=O)[O-]
47 | 112 to 114 | Cc1ccccc1C(CCC(=O)O)Oc1cc(OCc2ccsc2)ccc1-c1ncco1 (racemic)
48 | 130 to 132 | Cc1ccc(OCC#CI)c(Cl)n1
49 | > 250 | COC(=O)c1cccc2[nH]c(Sc3cccc4c(=O)cc[nH]c34)nc12
50 | 187 to 188 | O=C(N[C@H](Cc1ccc(C(F)(F)F)cc1)[C@@H](O)c1ccc(F)cc1)c1cccc(Cl)c1Cl (racemic)
